Measurements taken from patent publication US20110092476A1, “Bicycloheteroaryl compounds as P2X7 modulators and uses thereof” (Renovis, Inc., priority 2006, published 2011).
Values after ≈ are worked out from the molar mass of the structure shown. Where two headings read alike, the source gives them in different places.

How the values were obtained:
P2X7 receptor = molecular target: T1, P2X7 receptor (Homo sapiens, UniProt Q99572); assay: IL-1β release assay in differentiated THP-1 cells stimulated with BzATP (Example 9); assay type: cell-based; conditions: for IC50: THP-1 cells, IL-1β by ELISA
T1 construct: host or cells: THP-1 cells differentiated with LPS and IFN-γ
T1 sequence (Q99572 1-595): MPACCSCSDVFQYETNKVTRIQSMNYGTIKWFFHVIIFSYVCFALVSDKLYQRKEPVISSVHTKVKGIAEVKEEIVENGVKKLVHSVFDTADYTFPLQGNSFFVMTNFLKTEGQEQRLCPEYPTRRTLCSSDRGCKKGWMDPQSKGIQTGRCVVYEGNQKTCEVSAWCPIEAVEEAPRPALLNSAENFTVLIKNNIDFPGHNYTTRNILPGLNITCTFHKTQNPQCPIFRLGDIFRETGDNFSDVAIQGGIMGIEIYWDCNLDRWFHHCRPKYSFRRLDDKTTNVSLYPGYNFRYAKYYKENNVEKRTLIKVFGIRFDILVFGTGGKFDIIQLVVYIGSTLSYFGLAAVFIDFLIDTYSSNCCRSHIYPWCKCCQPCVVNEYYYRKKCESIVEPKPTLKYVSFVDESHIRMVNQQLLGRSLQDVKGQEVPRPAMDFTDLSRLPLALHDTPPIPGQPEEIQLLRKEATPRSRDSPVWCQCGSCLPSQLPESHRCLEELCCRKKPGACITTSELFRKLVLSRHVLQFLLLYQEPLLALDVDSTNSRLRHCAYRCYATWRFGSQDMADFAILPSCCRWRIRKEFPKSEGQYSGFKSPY
In short: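 IC50 derived by four-parameter logistic fit of percent inhibition of IL-1β release (ELISA, background-adjusted). Release triggered by 45 min BzATP at 250 uM final after 30 min compound pretreatment of THP-1 cells previously differentiated 16 h (LPS, IFN-γ, 100 ng/mL each) and re-primed 2 h with LPS.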

[1] = Pharmacokinetic evaluation following intravenous and oral administration in rats (oral bioavailability); assay type: in vivo, rat; conditions: male Sprague-Dawley rats, PO 1 to 5 mg/kg vs IV 1 mg/kg, AUCinf dose-normalized
Method: Male Sprague-Dawley rats are acclimatized for at least 24 hours prior to experiment initiation. During acclimation period, all animals receive food and water ad libitum. However, food but not water is removed from the animal's cages at least 12 hours before initiation of the experiment. During the first 3 hours of experimentation, the animals receive only water ad libitum. At least three animals each are tested for intravenous and oral dosage. For intravenous formulation, compounds were dissolved (0.25 to 1 mg/mL) in a mixture of 3% dimethyl sulfoxide, 40% PEG 400 and the rest percentage of 40% Captisol in water (w/v). The animals are weighed before dosing. The determined body weight is used to calculate the dose volume for each animal.
Dose volume (mL/kg)=1 mg/kg/formulation concentration (mg/mL)
In instances where the formulation concentrations were less than 0.5 mg/mL, the dosing volume is about 2 mL/kg.
PO rats are typically dosed through oral gavage following the same dose volume formula as IV to achieve a dose level of 1 to 5 mg/kg. […] About 250 uL of blood is obtained at each time point from the animal. Equal volumes of 0.9% normal saline are replaced to prevent dehydration. The whole blood samples are maintained on ice until centrifugation. Blood samples are then centrifuged at 14,000 rpm for 10 minutes at 4° C. and the upper plasma layer transferred into a clean vial and stored at −80° C. The resulting plasma samples are then analyzed by liquid chromatography-tandem mass spectrometry. Following the measurement of plasma samples and dosing solutions, plasma concentration-time curve is plotted. Plasma exposure is calculated as the area under the concentration-time curve extrapolated to time infinite (AUinf). The AUCinf is averaged and the oral bioavailability (% F) for individual animal is calculated as:
AUCinf (PO)/AUCinf (IV), normalized to their respective dose levels. The % F is reported as the mean % F of all animals dosed orally with the compound of the invention at the specified level (see Table 4 below).
For the purpose of Table 4, oral bioavailability of each compound is expressed as follows: […]

[2] = Determination of aqueous (kinetic) solubility; assay type: physicochemical; conditions: aqueous buffer, kinetic from dmso stock, buffer pH 7.4
Method: The mixture was vortexed for 1 hour and equilibrated overnight at room temperature. The mixture was filtered through a saturated filter and the filtrate was analyzed by LC/MS/MS.
For the purpose of Table 5, solubility of each compound is expressed as follows: […]

in vitro = conditions: human, microsomes, pH 7.4
Method: (§1) Test compounds (1 μM) are incubated with 3.3 mM MgCl2 and 0.78 mg/mL HLM (HL101) in 100 mM potassium phosphate buffer (pH 7.4) at 37° C. on the 96-deep well plate. The reaction mixture is split into two groups, a non-P450 and a P450 group. NADPH is only added to the reaction mixture of the P450 group. An aliquot of samples of P450 group is collected at 0, 10, 30, and 60 min time point, where 0 min time point indicated the time when NADPH is added into the reaction mixture of P450 group. […] Collected aliquots are extracted with acetonitrile solution containing an internal standard. […] The compound concentration in supernatant is measured by LC/MS/MS system.
(§2) The half-life value is obtained by plotting the natural logarithm of the peak area ratio of compounds/internal standard versus time. The slope of the line of best fit through the points yields the rate of metabolism (k). This is converted to a half-life value using following equations:

[3] = Half-life in human liver microsomes (HLM); conditions: pH 7.4
Method: as §1, §2

[4] = THP-1, read-out: IL-1β % Inhib. @ 0.3 or 0.1 uM
[5] = 0.3 μM compound, differentiated THP-1 cells, BzATP 250 uM, "+" symbols, read-out: IL-1β % Inhib. @ 0.3 or 0.1 uM

Row | Compound | inhibition at 0.3 µM (P2X7 receptor; [4]) | IC50 (P2X7 receptor; BzATP 250 uM) | Oral Bioavailability F (%) [1] | solubility [2] | half-life (in vitro) | inhibition at 0.3 µM (P2X7 receptor; [5]) | half-life at 1 μM [3]
1 | Cc1ccc2c(=O)n([C@H](C)CO)ccc2c1NC(=O)Cc1ccc(C(F)(F)F)c(F)c1 [Compound 393, N-[6-Methyl-2-((R)-2-hydroxy-1-methyl-ethyl)-1-oxo-1,2-dihydro-isoquinolin-5-yl]-2-(3-fluoro-4-trifluoromethyl-phenyl)-acetamide] | > 76% | 5.38 nM | +++ (51-75% F) | > 75 µM | 1.45 h | – | –
2 | C[C@H](CO)n1ccc2c(NC(=O)Cc3ccc(Cl)c(F)c3)cccc2c1=O [Compound 330, 2-(4-Chloro-3-fluorophenyl)-N-[2-((R)-2-hydroxy-1-methyl-ethyl)-1-oxo-1,2-dihydro-isoquinolin-5-yl]-acetamide] | – | – | ++++ (>75% F) | > 75 µM | – | > 76% | 1.41 h
3 | C[C@H](C(=O)Nc1cccc2c(=O)n([C@H](C)C(N)=O)ccc12)c1ccc(Cl)c(Cl)c1 [Compound 268] | – | – | ++ (26-50% F) | 51 to 75 µM (≈ 22 to 32.4 µg/mL) | – | > 76% | 1.36 h
4 | C[C@H](C(=O)Nc1cccc2c(=O)n([C@H](C)C(N)=O)ccc12)c1ccc(Cl)cc1 [Compound 263] | – | – | ++ (26-50% F) | > 75 µM | – | > 76% | 2.31 h
5 | C[C@H](CO)n1ccc2c(NC(=O)Cc3ccc(Cl)c(Cl)c3)c(Cl)ccc2c1=O [Compound 376] | – | – | ++ (26-50% F) | > 75 µM | – | > 76% | 0.9 h
6 | O=C(Cc1ccc(C(F)(F)F)c(F)c1)Nc1cccc2c(=O)n(CCO)ccc12 [Compound 357] | – | – | ++++ (>75% F) | < 25 µM | – | > 76% | 1.54 h
7 | C[C@H](C(N)=O)n1ccc2c(NC(=O)Cc3ccc(C(F)(F)F)cc3)cccc2c1=O [Compound 298] | – | – | + (0-25% F) | < 25 µM | – | > 76% | 3.35 h
8 | O=C(Cc1ccc(C(F)(F)F)c(F)c1)Nc1c(Cl)ccc2c(=O)n(CCO)ccc12 [Compound 383] | – | – | ++++ (>75% F) | < 25 µM | 3.65 h | > 76% | –
9 | C[C@H](CO)n1ccc2c(NC(=O)Cc3ccc(C(F)(F)F)cc3F)cccc2c1=O [Compound 359] | – | – | ++++ (>75% F) | < 25 µM | – | > 76% | 1.16 h
10 | Cc1ccc2c(=O)n([C@H](C)CO)ccc2c1NC(=O)Cc1ccc(F)c(C(F)(F)F)c1 [Compound 394] | – | 5.54 nM | ++ (26-50% F) | > 75 µM | – | > 76% | 0.7 h
11 | C[C@H](CO)n1ccc2c(NC(=O)Cc3ccc(F)c(C(F)(F)F)c3)c(Cl)ccc2c1=O [Compound 377, N-[6-Chloro-2-((R)-2-hydroxy-1-methyl-ethyl)-1-oxo-1,2-dihydro-isoquinolin-5-yl]-2-(4-fluoro-3-trifluoromethyl-phenyl)-acetamide] | > 76% | – | +++ (51-75% F) | > 75 µM | – | – | 1.01 h
12 | O=C(Cc1ccc(F)c(C(F)(F)F)c1)Nc1c(Cl)ccc2c(=O)n(CCO)ccc12 [Compound 386, N-[6-Chloro-2-(2-hydroxy-ethyl)-1-oxo-1,2-dihydro-isoquinolin-5-yl]-2-(4-fluoro-3-trifluoromethyl-phenyl)-acetamide] | > 76% | – | + (0-25% F) | < 25 µM | – | – | 1.08 h
13 | CC(C(=O)Nc1cccc2c(=O)n([C@H](C)C(N)=O)ccc12)c1ccc(Cl)c(C(F)(F)F)c1 (stereo partly drawn) [Compound 267, (R)-2-{5-[2-(4-Chloro-3-trifluoromethyl-phenyl)-propionylamino]-1-oxo-1H-isoquinolin-2-yl}-propionamide] | – | – | ++ (26-50% F) | 51 to 75 µM (≈ 23.8 to 34.9 µg/mL) | – | > 76% | 1.28 h
14 | C[C@H](C(N)=O)n1ccc2c(NC(=O)[C@H](C)c3ccc(Cl)c(Cl)c3)cccc2c1=O [Compound 269] | – | – | ++ (26-50% F) | 26 to 50 µM (≈ 11.2 to 21.6 µg/mL) | – | > 76% | 0.93 h
